What all share (format): cell-based
Data set [1] has as its system SH-SY5Y cells. Kind of data set: Neuronal cell rescue from Aβ toxicity (MTT). The settings on record: Aβ 10 μM. The protocol:
(§1) Cell rescue from Aβ toxicity by NMIs were assessed in SH-SY5Y cells. The cells were seeded into 96 well plate at cell density of 25,000 cells per well and after 24 h the media was replaced with DMEM-F12 with low serum (2.5% FBS). After 6 h, cells were treated with Aβ (10 μM) alone and with NMIs (20 μM) in low serum media. Different concentrations of compound (10, 20 and 50 μM) were used to treat cells. For metal dependent studies, Aβ (10 μM) with metals (20 μM) in the absence and presence of NMIs (20 μM) was treated. The cells were incubated for 30 h and MTT assay was performed to calculate the percentage cell viability.
Compounds of the present disclosure (M1 to M4) were evaluated for their ability to rescue neuronal cells from Aβ toxicity by MTT assay.
(§2) Further, the effect of concentration of compounds of the present disclosure on the cell rescue was assessed. […] The ability of NMIs to rescue cells from metal-dependent Aβ toxicity were assessed in the presence of Cu (II) and Zn (II). Cells were treated with Aβ (10 μM) along with metal ions (20 μM) and NMIs (20 μM) for 30 h. Aβ in the presence of Cu (II) reduced cell viability to ˜62% and M3 treatment had rescued cells with viability to 85% (FIG. 12C). Aβ with Zn (II) viability reduced to ˜61% and M3 treatment rescued cells by improving the viability to ˜79% (FIG. 12D). […] These in-cellulo experiments confirmed the ability of M3 to effectively rescue neuronal cells from metal-independent and dependent Aβ toxicity.

The test system of data set [2] is SH-SY5Y cells. Kind of data set: Cell rescue from Cu (II)-dependent Aβ toxicity (MTT). The protocol: as §1, §2
The subject of data set [3] is SH-SY5Y cells. The experiment in a line: Apoptosis assay by nuclear staining and morphology. The settings on record: Aβ 10 μM, compound 20 µM, 24 h. The protocol: The apoptosis induced by Aβ and rescue by NMIs (M3) was assessed through nuclear staining and morphology analysis. Apoptosis induces DNA damage and morphological change in the nucleus. Based on the nuclear features the extent of apoptosis was assessed as percentage apoptotic cells. SH-SY5Y cells were cultured and treated with Aβ (10 μM) and with NMIs (M3) (20 μM) to quantify the apoptosis and rescue by NMIs (M3). After 24 h the cells were washed with PBS and fixed with 4% paraformaldehyde and then with PBS for 5 min thrice and the nucleus was stained with DAPI (1 μM) for 10 min, washed thrice with PBS and imaged using fluorescence microscope to visualize the nuclear morphology. […] Total of more than 300 cells were counted to calculated the percentage of apoptosis.
Modulation of apoptosis by M3 was quantified by apoptosis assay through nuclear staining and morphological analysis. Apoptotic signals induced nuclear DNA damage show abnormal nuclear features, which has been used to evaluate and quantify the extent of apoptosis. Neuronal cells treated with Aβ (10 μM) alone and with […] for 24 h were stained for the nucleus and analysed for apoptotic morphological features.

Another data set has as its system NF-kβ. Kind of data set: Western blot of NF-kβ in C6 microglia. The settings on record: LPS 500 ng/mL, Aβ 5 μM, compound 10 μM; Aβ alone 2.62 fold. The protocol: (§3) Western blot analysis was performed to analyse the changes in the protein levels from cell lysates. SH-SY5Y and C6 cells were cultured to 80% confluence in T25 flask, trypsinised and seed into 12 well plate. The cells were cultured for 30 h and then treated with LPS (500 ng/mL) in low serum media for 6 h. Then the cells were treated with Aβ42 (5 μM) alone and with NMIs (M3) (10 μM) for 18 h. The cells were harvested by trypsinisation and the protein was extracted in RIPA lysis buffer with protease inhibitor cocktail (1×). Briefly cells were washed with dPBS and lysed in […] of RIPA lysis buffer with gentle shaking in 4° C. for 30 min. Then the cells were centrifuged at 16000 g for 20 min and the supernatant containing protein was collected and quantified by Bradford assay. The protein lysate was subjected to SDS-PAGE (12% resolving gel) and transferred to PVDF membrane. The blot paper was blocked with 5% skim milk powder for 1 h at room temperature and then washed thrice with TBST. […] All the western blots were quantified by using ImageJ, data was plotted and analysed by GraphPad prism5.
NF-kβ is a tangible drug target for neuroinflammation and AD. […] C6 microglia were primed with LPS (500 ng/mL) followed by Aβ (5 μM) treatment to induce inflammation, which was monitored by the change in NF-kβ levels in western blot analysis (FIG. 16F).

For the next data set, the system named is IL6. The experiment in a line: Western blot of IL6 in C6 microglia. The settings on record: LPS 500 ng/mL, Aβ 5 μM, compound 10 μM; changes statistically insignificant. As for the experimental part: as §3, with “TBST. The blots were incubated with primary antibodies for 20 h at 4° C. The blots were washed thrice with TBST for 5 min and then incubated with anti-rabbit HRP-conjugated secondary antibodies for 1 h at room temperature.” for “TBST.”, “prism5. […]” for “prism5.”

The mark [4] stands for this setting: modulators 20 μM, Aβ alone ~52%, FIG. 12A.

Take `CN(C)c1ccc2c3c(cccc13)C(=O)N(CCc1ccc(O)c(O)c1)C2=O` [M1, 2-(3,4-dihydroxyphenethyl)-6-(dimethylamino)-1H-benzo[de]isoquinoline-1,3(2H)-dione]: the cell viability entry in the data set with SH-SY5Y cells [1] (setting [4]) is given as “lowered alleviation of the Aβ toxicity”.
Take `O=C1c2cccc3c(N(Cc4ccccn4)Cc4ccccn4)ccc(c23)C(=O)N1CCc1ccc(O)c(O)c1` [M3, 6-(bis(pyridin-2-ylmethyl)amino)-2-(3,4-dihydroxyphenethyl)-1H-benzo[de]isoquinoline-1,3(2H)-dione]: the cell viability result is given as “near-complete rescue” with SH-SY5Y cells [1] (50 μM compound, control 54%, FIG. 12B); roughly 75% with SH-SY5Y cells [1] (setting [4]); 85% in the data set with SH-SY5Y cells [2] (Aβ 10 μM, Cu (II) 20 μM, NMIs 20 μM, 30 h, without compound ~62%); 86% in the data set with SH-SY5Y cells [2] (Cu (II)-dependent Aβ toxicity, higher concentration 50 µM, FIG. 13). Further, the viability at 5 µM in the data set on SH-SY5Y cells [1] (Homo sapiens, SH-SY5Y, 5 μM compound, control 54%, FIG. 12B) was 68%. The same molecule showed a viability at 10 µM with SH-SY5Y cells [1] (Homo sapiens, SH-SY5Y, 10 μM compound, control 54%, FIG. 12B) of 70%. Besides, in the data set on SH-SY5Y cells [1] (Homo sapiens, SH-SY5Y, 20 μM compound, control 54%, FIG. 12B), the viability at 20 µM is 83%. Also, in the data set on SH-SY5Y cells [3] (DAPI), the nuclear morphology result is recorded as “normal nuclear structures”. For the same molecule, the “apoptosis of neuronal cells” value with SH-SY5Y cells [3] (Aβ alone ~35%, control ~8.5%) is recorded as 22.5%. Also, the “NF-kβ level compared to control” value with NF-kβ turned out to be 1.78 fold. The IL6 level entry in the data set on IL6 was “reduced”.

These data come from patent US20250179024A1, “AMYLOID AND ASSOCIATED PATHOLOGY MODULATORS AND METHODS THEREOF” (Jawaharlal Nehru Centre for Advanced Scientific Research, priority 2022, published 2025).
